Data as given in ChEMBL document CHEMBL1151678, “Halicylindramides D and E, antifungal peptides from the marine sponge Halichondria cylindrata” (J Nat Prod, 1996).
The source made the active and inactive calls. No cut-off for these calls is given here.

Assays:
P388 [1] = assay: Cytotoxicity against mouse P388 cells at 5 ug/mL; type: functional, cell-based
Umbelopsis ramanniana [2] = assay: Antifungal activity against Mortierella ramanniana at 160 ug/disk; type: functional, organism-based
Umbelopsis ramanniana [3] = assay: Antifungal activity against Mortierella ramanniana at 5 ug/disk; type: functional, organism-based
P388 [4] = assay: Cytotoxicity against mouse P388 cells; type: functional, cell-based

| Structure (SMILES) | Activity (P388 [1]) | Activity (Umbelopsis ramanniana [2]) | Activity (Umbelopsis ramanniana [3]) | IC50 (P388 [4]) [µg/mL] |
| --- | --- | --- | --- | --- |
| CC(C)[C@@H](NC(=O)[C@@H]1CCCN1C(=O)[C@H](Cc1ccc(Br)cc1)NC(=O)[C@@H](C)NC=O)C(=O)N[C@H](C(=O)N[C@H](Cc1c[nH]c2ccccc12)C(=O)N[C@@H](CCCNC(=N)N)C(=O)N[C@H](CS(=O)(=O)O)C(=O)N[C@H](C(=O)N(C)[C@@H](CCC(N)=O)C(=O)N[C@H](Cc1ccccc1)C(N)=O)[C@@H](C)O)C(C)(C)C | inactive | Active | – | – |
| CC(C)[C@H](NC(=O)[C@H](NC(=O)[C@@H]1CCCN1C(=O)[C@H](Cc1ccc(Br)cc1)NC(=O)[C@@H](C)NC=O)C(C)C)C(=O)N[C@H](Cc1c[nH]c2ccccc12)C(=O)N[C@@H](CCCNC(=N)N)C(=O)N[C@H](CS(=O)(=O)[O-])C(=O)N[C@@H]1C(=O)N(C)[C@@H](CCC(N)=O)C(=O)N[C@H](Cc2ccccc2)C(=O)NCC(=O)N[C@H](CC(N)=O)C(=O)O[C@@H]1C.[Na+] [HALICYLINDRAMIDE D] | – | – | Active | 2.1 |
